Experimental data reported in paper PMC2364952, “The Anti-Inflammatory Activity of Boron Derivatives in Rodents” (Metal-Based Drugs, 1995).
pIC50: −log10 of the molar value.

Legend:
[1] = test system: carrageenan-induced inflammation of paw; experiment: Carrageenan-induced paw edema, rats; assay type: in vivo, Sprague Dawley male rats; conditions: for reduction in induced edema in rats: 8 mg/kg x 2; for Rat Inflammatory: 8 mg/kg x 2, I.P., Table 2;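 on Rat Inflammatory: paw weight increase as percent of control rats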
[2] = test system: acetic acid induced stretch reflex; experiment: Local analgesic screen (acetic acid writhing); assay type: in vivo, CF1 mice; conditions: for Mice Writhing Reflex: 8 mg/kg I.P., Table 2; for reduction of the reflex action: mice, acetic acid induced local pain, 8 mg/kg
[3] = test system: tail flick response to heat; experiment: Hot plate tail flick screen; assay type: in vivo, CF1 male mice; conditions: for Mice Tail Flick: 8 mg/kg I.P., hot plate, Table 2; for tail flick assay time: mice, 8 mg/kg
[4] = test system: carrageenan-induced pleural fluid; experiment: Anti-pleurisy screen; assay type: in vivo, Sprague Dawley male rats; conditions: for pleurisy edema in rats: 8 mg/kg; for Rat Pleurisy: rats, 8 mg/kg I.P., 1 h before and 3 h after carrageenan, Table 2;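 on Rat Pleurisy: Pleural fluid volume as percent of control rats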
[5] = test system: adjuvant (M. butyricum) arthritis; experiment: Chronic adjuvant arthritic screen; assay type: in vivo; conditions: rats; for Rat Chronic Arthritis: 8 mg/kg/day I.P., Day 3 to Day 21, Table 2
acid phosphatase = experiment: Acid phosphatase activity, mouse macrophages; assay type: cell-based, mouse (J774 macrophages); conditions: Table 3; read-out: IC50 Acid Phosphatase, Mouse Macrophage
cathepsin = experiment: Cathepsin activity, mouse macrophages; assay type: cell-based, mouse (J774 macrophages); conditions: Table 3; read-out: IC50 Cathepsin, Mouse Macrophage
aryl sulphatase = experiment: Aryl sulfatase activity, mouse macrophages; assay type: cell-based, mouse (J774 macrophages); conditions: Table 3; read-out: IC50 Aryl Sulfatase, Mouse Macrophage
trypsin [6] = experiment: Trypsin proteolytic activity, mouse macrophages; assay type: cell-based, mouse (J774 macrophages); conditions: Table 5; read-out: IC50 Trypsin, Mouse Macrophage
elastase [7] = experiment: Elastase activity, mouse macrophages; assay type: cell-based, mouse (J774 macrophages); conditions: Table 5; read-out: IC50 Elastase, Mouse Macrophage
trypsin [8] = experiment: Trypsin activity, UMR-106 osteosarcoma cells; assay type: cell-based; conditions: Table 6; read-out: IC50 Trypsin, Rat UMR-106 Bone Osteosarcoma
neutral cathepsin = experiment: Cathepsin activity, UMR-106 osteosarcoma cells; assay type: cell-based; conditions: Table 6; read-out: IC50 Neutral Cathepsin, Rat UMR-106 Bone Osteosarcoma
elastase [9] = experiment: Elastase activity, UMR-106 osteosarcoma cells; assay type: cell-based; conditions: Table 6; read-out: IC50 Elastase, Rat UMR-106 Bone Osteosarcoma
[10] = target: prostaglandin cyclooxygenase; experiment: Prostaglandin cyclooxygenase activity, macrophages; assay type: cell-based, mouse (J774 macrophages); conditions: Table 7
[11] = test system: prostaglandin cyclooxygenase; experiment: Prostaglandin cyclooxygenase activity, Be Sal cells; assay type: cell-based, human (Be Sal osteofibrolytic cells); conditions: Table 7; read-out: IC50 Prostaglandin Cyclooxygenase, Be Sal Osteofibro
[12] = target: T1, prostaglandin cyclooxygenase (Bos taurus, UniProt O62664); experiment: Prostaglandin synthetase from bovine seminal vesicles; assay type: biochemical; conditions: Table 7; read-out: IC50 Prostaglandin Cyclooxygenase, Beef Seminal Vesicle
T1 construct: purified commercial prostaglandin synthetase from bovine seminal vesicles (Miles Research Products); purchased Miles Research Products; host or cells: bovine seminal vesicles (tissue preparation)
T1 sequence (O62664 25-600): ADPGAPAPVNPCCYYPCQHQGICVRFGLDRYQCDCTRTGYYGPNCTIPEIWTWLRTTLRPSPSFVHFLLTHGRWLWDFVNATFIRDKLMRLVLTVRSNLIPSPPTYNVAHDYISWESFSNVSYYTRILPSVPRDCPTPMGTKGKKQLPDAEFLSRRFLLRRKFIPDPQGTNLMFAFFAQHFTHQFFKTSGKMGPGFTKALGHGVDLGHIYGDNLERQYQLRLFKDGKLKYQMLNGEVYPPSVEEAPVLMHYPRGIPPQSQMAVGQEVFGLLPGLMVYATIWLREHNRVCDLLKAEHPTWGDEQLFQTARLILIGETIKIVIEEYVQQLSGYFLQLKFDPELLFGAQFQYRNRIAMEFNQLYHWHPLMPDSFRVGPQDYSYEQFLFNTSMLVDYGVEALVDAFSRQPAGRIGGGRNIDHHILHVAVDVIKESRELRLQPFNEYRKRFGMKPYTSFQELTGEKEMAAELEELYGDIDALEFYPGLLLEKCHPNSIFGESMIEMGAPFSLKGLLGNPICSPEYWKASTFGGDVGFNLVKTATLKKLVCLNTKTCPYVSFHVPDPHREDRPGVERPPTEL

5'-lipoxygenase [13] = target: T2, 5'-lipoxygenase (Mus musculus, UniProt P48999); experiment: 5'-Lipoxygenase activity, mouse macrophages; assay type: cell-based; conditions: Table 7; read-out: IC50 5'-Lipoxygenase, Mouse Macrophage
T2 construct: endogenous in cells; host or cells: mouse macrophages (J774A as maintained above)
T2 sequence (P48999 1-674): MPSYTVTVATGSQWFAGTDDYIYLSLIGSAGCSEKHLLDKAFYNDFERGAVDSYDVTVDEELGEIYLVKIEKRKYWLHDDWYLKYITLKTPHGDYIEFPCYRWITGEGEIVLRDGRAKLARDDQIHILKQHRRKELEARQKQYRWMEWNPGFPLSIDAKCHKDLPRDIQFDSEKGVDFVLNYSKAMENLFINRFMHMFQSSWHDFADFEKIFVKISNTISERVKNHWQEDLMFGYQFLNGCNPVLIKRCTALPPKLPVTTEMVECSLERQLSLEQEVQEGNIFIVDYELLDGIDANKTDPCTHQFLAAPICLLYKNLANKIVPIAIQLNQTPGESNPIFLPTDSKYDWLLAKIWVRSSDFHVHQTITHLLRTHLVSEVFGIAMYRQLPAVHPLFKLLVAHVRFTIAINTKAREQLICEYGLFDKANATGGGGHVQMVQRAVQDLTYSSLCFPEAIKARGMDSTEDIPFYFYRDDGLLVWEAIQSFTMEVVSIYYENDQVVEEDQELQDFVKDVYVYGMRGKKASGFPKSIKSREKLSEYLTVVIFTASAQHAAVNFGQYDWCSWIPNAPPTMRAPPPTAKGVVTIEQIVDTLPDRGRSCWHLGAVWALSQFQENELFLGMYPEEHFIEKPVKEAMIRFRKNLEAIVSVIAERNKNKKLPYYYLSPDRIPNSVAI

5'-lipoxygenase [14] = target: T3, 5'-lipoxygenase (Homo sapiens, UniProt P09917); experiment: 5'-Lipoxygenase activity, human leukocytes; assay type: cell-based; conditions: Table 7
T3 construct: endogenous in cells; host or cells: RMPI 1788 human leukocytes
T3 sequence (P09917 1-674): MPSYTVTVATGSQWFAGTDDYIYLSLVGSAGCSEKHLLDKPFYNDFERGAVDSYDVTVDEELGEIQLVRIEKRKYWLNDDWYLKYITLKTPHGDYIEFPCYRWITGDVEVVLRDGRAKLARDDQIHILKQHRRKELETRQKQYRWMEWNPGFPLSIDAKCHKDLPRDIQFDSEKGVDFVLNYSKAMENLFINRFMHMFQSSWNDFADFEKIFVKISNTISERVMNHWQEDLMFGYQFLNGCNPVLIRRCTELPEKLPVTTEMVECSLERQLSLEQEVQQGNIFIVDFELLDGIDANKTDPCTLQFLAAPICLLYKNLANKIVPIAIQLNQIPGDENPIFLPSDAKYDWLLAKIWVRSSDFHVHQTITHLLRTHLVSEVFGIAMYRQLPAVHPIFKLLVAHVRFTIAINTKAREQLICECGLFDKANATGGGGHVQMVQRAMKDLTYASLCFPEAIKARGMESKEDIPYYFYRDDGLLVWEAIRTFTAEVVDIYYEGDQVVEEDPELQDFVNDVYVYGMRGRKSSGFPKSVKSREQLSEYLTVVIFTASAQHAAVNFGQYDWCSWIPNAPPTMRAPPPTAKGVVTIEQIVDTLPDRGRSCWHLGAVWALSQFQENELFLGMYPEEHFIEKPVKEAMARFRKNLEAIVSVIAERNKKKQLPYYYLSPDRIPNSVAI

[15] = test system: carrageenan-induced inflammation of hind foot; experiment: Carrageenan-induced foot edema, mice; assay type: in vivo, CF1 male mice; conditions: mice, 8 mg/kg x 2

Row | SMILES | Rat Inflammatory [1] | Mice Writhing Reflex [2] | reduction of the reflex action [2] [%] | Mice Tail Flick [3] | tail flick assay time [3] | pleurisy edema in rats [4] | Rat Pleurisy [4] | pIC50 (acid phosphatase) | pIC50 (cathepsin) | pIC50 (aryl sulphatase) | pIC50 (trypsin [6]) | pIC50 (elastase [7]) | pIC50 (trypsin [8]) | pIC50 (neutral cathepsin) | pIC50 (elastase [9]) | pIC50 [10] | pIC50 [11] | pIC50 [12] | pIC50 (5'-lipoxygenase [13]) | pIC50 (5'-lipoxygenase [14]) | further results
1 | CCCCCCCCCCCCCCCC[N+](C)(C)[BH2-]C(=O)O [Compound 8] | 59 % of control | 16 % of control | 80 | 167 % of control | increased | reduced significantly | 19 % of control | 6.03 | 5.14 | 5.01 | 5.90 | 5.74 | 5.18 | 5.18 | 5.02 | 5.59 | 5.17 | 5.61 | 5.06 | 5.82 | reduction in induced edema in rats [1]: at least 40%; activity in chronic arthritis screen ([5]; 8 mg/kg/day): significantly active; Rat Chronic Arthritis [5]: 40 % of control
2 | O=C(O)[BH2-][P+](c1ccccc1)(c1ccccc1)c1ccccc1 [Compound 12] | 61 % of control | 19 % of control | 80 | 197 % of control | increased | reduced significantly | 28 % of control | 5.97 | 5.26 | 5.07 | 5.75 | 5.52 | 5.25 | 5.24 | 5.05 | 5.45 | 5.26 | 5.12 | 5.01 | 5.32 | activity in chronic arthritis screen ([5]; 8 mg/kg/day): significantly active; Rat Chronic Arthritis [5]: 49 % of control
3 | COC(=O)[BH2-][NH+](C)C [Compound 15] | 59 % of control | 12 % of control | 80 | 147 % of control | increased |  | 86 % of control | 5.98 | 5.17 | 5.13 | 5.56 | 5.67 | 5.18 | 5.21 | 5.01 | 5.55 | 5.37 | 5.54 | 5.18 | 5.27 | anti-inflammatory activity in mouse edema screen [15]: less active; reduction in induced edema in rats [1]: at least 40%
4 | C[N+](C)(C)[BH2-]C#N [Compound 34] | 65 % of control | 18 % of control | 80 |  |  | reduced significantly | 65 % of control | 5.98 | 5.20 | 5.03 | 5.85 | 5.87 | 5.58 | 5.26 | 5.05 | 5.23 | 5.37 | 5.23 | 5.09 | 5.19 | reduction of pannus ([5]; 8 mg/kg/day): greater than 75%; Rat Chronic Arthritis [5]: 4 % of control
